What all share (format): biochemical
Experiment [1] concerns the target T1, preformed Aβ40 fibrils (Homo sapiens, UniProt P05067).
T1 construct: Amyloid protein (Aβ40) was purchased from GL Biochem Ltd. (Shanghai, China); purchased GL Biochem Ltd. (Shanghai, China)
Kind of experiment: ThT fluorescence assay of Aβ40 fibril disassembly. To be noted: 15 μM Aβ40, PBS pH 7.4, 37° C., 3 days. As for the experimental part:
ThT fluorescence assays were conducted in 96-well black plate (Thermo Scientific NUNC, catalog NO. 265301) at 37° C. with continuous shaking (567 rpm) in a BioTek Hybrid H1 plate reader. ThT fluorescence was recorded with 10 minutes reading intervals and 5 s shaking before first read (442 nm excitation, 482 nm emission). All samples were run in quadruple or more. At least three independent experiments were carried out for each ThT assay. Each well contained 10 mM PBS buffer solution (pH 7.4) and 20 μM ThT in a total volume of 200 μL. Aβ40 (15 μM, 1.0 equiv), iAβ5, control polymer 5, and mP-iAβ5 conjugates 4 of different molecular weights were added as needed. The concentrations of added samples were calculated based on Aβ40 (15 μM, 1.0 equiv).
Preparation of Buffered ThT Solution. The ThT solution in 20 mM PBS was freshly prepared before use. […] The concentration of the above solution was determined by UV-Vis at 412 nm (ε=36000 M^−1 cm^−1). Based on the determined concentration of the ThT solution, ultrapure water and 100 mM PBS were further added to dilute the ThT solution to 40 μM in 20 mM PBS, pH 7.4 […]
To each well of 96-well plate, the buffered ThT solution (40 μM, 100 μL) and ultrapure water (80 μL) were added and mixed. […] The samples containing mature fibrils of Aβ40 and modulators were coincubated for another 3 days in plate reader. The fluorescence was monitored by ThT assays.

The next experiment concerns the target T2, Aβ40 (Homo sapiens, UniProt P05067).
T2 construct: Amyloid protein (Aβ40) was purchased from GL Biochem Ltd. (Shanghai, China); purchased GL Biochem Ltd. (Shanghai, China)
Kind of experiment: Circular dichroism of Aβ40 secondary structure with fibril breakers. As to conditions: iAβ5 910 μM, 60.7 equiv; Aβ40 15 μM; 3 days. As for the experimental part: We used circular dichroism studies to further confirm the secondary structures of disassembled Aβ40 aggregates in the presence of mP-iAβ5 conjugates, PHPMA, or iAβ5. Aβ40 solutions were incubated alone for 24 h to form fibrils. […] As Aβ40 continues to aggregate, the negative peak at 198 nm was converted to the positive peak around 194 nm and a negative peak around 217 nm.
Fibril breakers (mP-iAβ5 conjugates, PHPMA, or iAβ5) were added to preformed Aβ40 fibrils after 24 h and coincubated for 3 days before the structure characterization by circular dichroism.
Circular Dichroism (CD) spectroscopy. CD spectra of Aβ40 fibril solution incubated without or with fibril breakers (mP-iAβ5 conjugates, PHPMA, or iAβ5) were recorded in a JASCO J-815 Spectrometer (JASCO Co., Tokyo, Japan), using a quartz cuvette (1 mm path length). […] The spectra were taken as the average of three accumulations from 190 and 260 nm at a speed of 50 nm/min. All of the samples were incubated at 37° C. in 10 mM phosphate buffer solution (PBS) with a continuous agitation speed of 567 rpm. Spectra were calibrated by subtracting the buffer or sample solution baseline.

The target of experiment [2] is T1, preformed Aβ40 fibrils. Description: Control incubations with preformed Aβ40 fibrils assessed by AFM and DLS. As to conditions: 3 days of incubation. As for the experimental part: To evaluate the ability of mP-iAβ5 conjugates to disassemble amyloid fibrils, we conducted experiments in which mP-iAβ5 conjugates were incubated with preformed Aβ40 fibrils. Freshly prepared Aβ40 (15 μM) solutions were preincubated at 37° C. for 24 h, which is sufficiently long for mature fibrils to grow, as evidenced by AFM images and ThT fluorescence assays (FIG. 8). The preformed Aβ40 fibrils solution was then coincubated with 1.0 equiv of mP-iAβ5 conjugates of different molecular weights, and the morphology transformation of the fibril structures was monitored at 37° C. for 3 days by DLS, AFM imaging, and ThT fluorescence (we define an equiv of mP-iAβ5 as the molar ratio of polymer to Aβ40).
The molecular weight of mP-iAβ5 conjugate that completely disassembles preformed Aβ40 fibrils is 166 kDa. […] The disassembly of preformed fibrils by mP-iAβ5 conjugates was also quantitatively analyzed by DLS in solution phase. In agreement with AFM images, DLS results confirmed that all Aβ40 fibrils were transformed into dispersible sub-100 nm structures, and 0% of fibrils remained after 3 days of incubation (FIG. 2i). […] To investigate the effect of the PHPMA polymer backbone without iAβ5 moieties on Aβ40 disassembly, we incubated preformed Aβ40 fibrils in the presence of 1.0 equiv of 166 kDa PHPMA with and without 60.7 equiv of iAβ5 for 3 days.
Atomic Force Microscopy (AFM). Samples for AFM studies were taken directly from the ThT assays, and 10 μL of each sample solution was loaded on freshly cleaved mica surface (Electron Microscopy Sciences, catalog NO. 71856-01). Samples were incubated for 5 minutes and rinsed with 5 drops of molecular biology grade water. The mica surface was blow-dried under nitrogen. AFM images were obtained on a MultiMode V (Bruker, Santa Barbara, USA) microscope in tapping mode. Ultrasharp silicon cantilevers (SCANASYST-ATR, Bruker) were used. All of the images were collected at a scan rate of 1 Hz and scan lines of 512.
Dynamic Light Scattering (DLS). Samples for DLS studies were prepared at the same condition as in ThT assays without adding ThT dye molecules. The DLS studies were carried out using a particle sizer NICOMP 380 ZLS.

T1 sequence (P05067 672-711 limits assumed): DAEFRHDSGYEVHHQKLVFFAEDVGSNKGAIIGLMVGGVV
T2 sequence (P05067 672-711 limits assumed): as above

Regarding LPFFD [iAβ5], the “ThT intensity during coincubation with Aβ40 fibrils” value at preformed Aβ40 fibrils [1] is given as “not accompanied by the decreased ThT intensity”. The “secondary structure by CD after coincubation with preformed Aβ40 fibrils” value on Aβ40 is recorded as “remain β-sheet structures”. Also, the “effect on preformed fibrils according to AFM and DLS” value at preformed Aβ40 fibrils [2] (8.1 equiv of iAβ5 per Aβ40), at preformed Aβ40 fibrils [2] (16.7 equiv of iAβ5 per Aβ40), on preformed Aβ40 fibrils [2] (32.5 equiv of iAβ5 per Aβ40), at preformed Aβ40 fibrils [2] (60.7 equiv of iAβ5 per Aβ40) and on preformed Aβ40 fibrils [2] (81.3 equiv of iAβ5 per Aβ40) was “remained unchanged” in each case.

For the origin of these results see US20180296683A1, “COMPOSITIONS AND METHODS FOR DISASSEMBLING AMYLOID FIBRILS” (The Board of Trustees of the University of Illinois, priority 2017, published 2018).
